Reference: paper PMC8901636, “Preclinical studies of Flonoltinib Maleate, a novel JAK2/FLT3 inhibitor, in treatment of JAK2^V617F-induced myeloproliferative neoplasms” (Blood Cancer Journal, 2022)

What was measured:
Ba/F3-JAK2^WT = assay: MTT assay for cell proliferation; format: cell-based, Murine; conditions: Mus musculus; Ba/F3-JAK2^WT; IL-3-dependent growth; MTT 72 h; read-out: IC50(μM) ± SD, tumor cell proliferation
Procedure: (§1) For in vitro inhibition assays, cells were seeded in 96-well culture plates with a density of 15,000–20,000 cells/well after the cells reached 70–90% confluence. […] MTT (3-(4, 5-dimethylthiazol-2-yl)-2, 5-diphenyltetrazolium bromide) (Cat. No. 1334GR001; BioFroxx) assay was conducted in order to examine viability. The IC50 values were fitted using GraphPad Prism 7.0.

Ba/F3-EPOR = assay: MTT assay for cell proliferation; format: cell-based, Murine; conditions: Mus musculus; Ba/F3-EPOR; IL-3-dependent growth; MTT 72 h; read-out: IC50(μM) ± SD, tumor cell proliferation
Procedure: as §1

HEL = assay: MTT assay for cell proliferation; format: cell-based; conditions: Homo sapiens, JAK2V617F, MTT 72 h, read-out: IC50(μM) ± SD, tumor cell proliferation
Procedure: as §1

Ba/F3-JAK2^V617F = assay: MTT assay for cell proliferation; format: cell-based, Murine; conditions: Mus musculus; Ba/F3-JAK2^V617F; MTT 72 h; read-out: IC50(μM) ± SD, tumor cell proliferation
Procedure: as §1

Ba/F3-EPOR-JAK2^V617F = assay: MTT assay for cell proliferation; format: cell-based, Murine; conditions: Mus musculus; Ba/F3-EPOR-JAK2^V617F; MTT 72 h; read-out: IC50(μM) ± SD, tumor cell proliferation
Procedure: as §1

MV-4-11 = assay: MTT assay for cell proliferation; format: cell-based; conditions: Homo sapiens, MV4-11; MV-4-11; FLT3-ITD expression; MTT 72 h; read-out: IC50(μM) ± SD, tumor cell proliferation
Procedure: as §1

Molm-13 = assay: MTT assay for cell proliferation; format: cell-based; conditions: Homo sapiens; Molm-13; FLT3-ITD expression; MTT 72 h; read-out: IC50(μM) ± SD, tumor cell proliferation
Procedure: as §1

Ba/F3-FLT3-ITD = assay: MTT assay for cell proliferation; format: cell-based, Murine; conditions: Mus musculus; Ba/F3-FLT3-ITD; MTT 72 h; read-out: IC50(μM) ± SD, tumor cell proliferation
Procedure: as §1

Ba/F3-FLT3-ITD^F691 = assay: MTT assay for cell proliferation; format: cell-based, Murine; conditions: Mus musculus; Ba/F3-FLT3-ITD^F691; MTT 72 h; read-out: IC50(μM) ± SD, tumor cell proliferation
Procedure: as §1

Ba/F3-FLT3-ITD^D835V = assay: MTT assay for cell proliferation; format: cell-based, Murine; conditions: Mus musculus; Ba/F3-FLT3-ITD^D835V; MTT 72 h; read-out: IC50(μM) ± SD, tumor cell proliferation
Procedure: as §1

JAK2^V617F = JAK2^V617F bone marrow transplantation (BMT) myelofibrosis model; format: in vivo, BALB/c mice; conditions: 30 mg/kg bid p.o.
Bioavailability [1] = conditions: rat, in vivo; rats; data not shown
Bioavailability [2] = conditions: dog, in vivo; dogs; data not shown
Ba/F3-JAK2^V617F cells = assay: Ba/F3-JAK2^V617F disease model
[3] = tested on: Ba/F3-EPOR-JAK2^V617F cells; assay: Ba/F3-EPOR-JAK2^V617F malignancy mouse model; conditions: 30 mg/kg bid p.o.

Molecule `Cc1cnc(Nc2ccc(OCCN3CCCC3)cc2)nc1Nc1cccc(S(=O)(=O)NC(C)(C)C)c1` [Fedratinib, reference compound] has an IC50 (Ba/F3-JAK2^WT) of 0.68 ± 0.12 µM, an IC50 (Ba/F3-EPOR) of 0.97 ± 0.23 µM and an IC50 (HEL) of 0.77 ± 0.36 µM. For the same molecule, the IC50 (Ba/F3-JAK2^V617F) was 0.61 ± 0.13 µM, the IC50 (Ba/F3-EPOR-JAK2^V617F) was 1.71 ± 0.04 µM and the IC50 (MV-4-11) was 0.26 ± 0.11 µM. For the same molecule, the IC50 (Molm-13) was 0.17 ± 0.01 µM, the IC50 (Ba/F3-FLT3-ITD) was 0.21 ± 0.05 µM and the IC50 (Ba/F3-FLT3-ITD^F691) was 0.74 ± 0.15 µM. The IC50 (Ba/F3-FLT3-ITD^D835V) was 0.37 ± 0.04 µM, the inhibition of splenomegaly (JAK2^V617F; figure prints it with a minus sign over Spleen Wight (mg)) was 90.56% and the median survival time (JAK2^V617F; vehicle 133.5 days) was over 180 days. The bioavailability (Bioavailability [1]) was 19%, the bioavailability (Bioavailability [2]) was 37% and the “inhibition of the spleen growth” value (Ba/F3-JAK2^V617F cells; 30 mg/kg bid p.o., 22 days, figure prints it with a minus sign over Spleen Weight (mg)) was 67.44%. The median survival (Ba/F3-JAK2^V617F cells; 30 mg/kg bid p.o., vehicle 25 days) was 28 days, the “body weight during treatment” value (Ba/F3-JAK2^V617F cells; any dose) was “no obvious body weight decrease” and the “spleen suppression rate” value ([3]; 16 days) was -40.23%. For the same molecule, the median survival time ([3]; vehicle 19 days) was 22 days.
